Results from the supplement of paper PMC11208160.

assay: recombinant UMI read abundance after kanamycin selection (control-corrected) (log10(CPM+1)); higher = more efficient recombination; extreme values may be limits of the assay; sequences stand for … in AGTGCAGAGAAAATCGGCCAGTTTTCTCTGCCTGCAGTCCGCATGCCGTGGGACCCCTTGGGTTCTAACCTGTTGCCTAGATTTATGCAGCGGACTGCCTTTCTCCCAAAGTGATAAACCGG…AGGTTGGTTTCACT; site = the 11-nt donor
Method: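 Pooled E. coli donor-specificity screen for the IS621 bridge recombinase. Each library member carries a reprogrammed 11-nt donor and a full-length LE bridge RNA expressed in cis from the natural promoter, with a paired donor-binding loop (8-nt LDG + 4-nt RDG) and a target-binding loop fixed to T5. It is co-electroporated with a T5 target plasmid; recombinase is induced with 0.07 mM IPTG and recombinants are selected on kanamycin. UMIs are counted as CPM, averaged over two biological replicates and corrected by the unselected control. Molecule = full bridge RNA written as DNA, built from the T5 scaffold: LDG = donor specificity nt 1-8, RDG = reverse complement of nt 8-11.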
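Note: IS621 bridge recombinase in Escherichia coli cells against a fixed T5 target plasmid.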

Row | Sequence | recombinant UMI read abundance (log10)
1 | AAAAGGCCATGGACCGGTTTTCCCGGTAATCCGTATTTGAC (site AAAAGGCCTGT) | 1.38
2 | AAAAGGCCATGGACCGGTTTTCCCGGTAATCCGTATTTGAC (site ACAAGGCCTGT) | 0
3 | AAAAGGCCATGGACCGGTTTTCCCGGTAATCCGTATTTGAC (site AGAAGGCCTGT) | 0
4 | AAAAGGCCATGGACCGGTTTTCCCGGTAATCCGTATTTGAC (site ATAAGGCCTGT) | 0
5 | AAAAGTACATGGACCGGTTTTCCCGGTAATCCGTATTTGAT (site AAAAGTACTAT) | 1.62
6 | AAAATACCATGGACCGGTTTTCCCGGTAATCCGTATTTGAC (site AAAATACCTGT) | 0
7 | AAACAGACATGGACCGGTTTTCCCGGTAATCCGTATTTGAC (site AAACAGACTGT) | 2.57
8 | AAACAGTCATGGACCGGTTTTCCCGGTAATCCGTATTTGCT (site AAACAGTCTAG) | 2.98
9 | AAACATGCATGGACCGGTTTTCCCGGTAATCCGTATTTGAA (site AAACATGCTTT) | 2.15
10 | AAACGCACATGGACCGGTTTTCCCGGTAATCCGTATTTGTG (site AAACGCACTCA) | 0.245
11 | AAACGGACATGGACCGGTTTTCCCGGTAATCCGTATTTGTA (site AAACGGACTTA) | 1.84
12 | AAACTAACATGGACCGGTTTTCCCGGTAATCCGTATTTGCA (site AAACTAACTTG) | 2.27
13 | AAACTAACATGGACCGGTTTTCCCGGTAATCCGTATTTGCG (site AAACTAACTCG) | 2.09
14 | AAAGAATCATGGACCGGTTTTCCCGGTAATCCGTATTTGCA (site AAAGAATCTTG) | 2.66
15 | AAAGAATCATGGACCGGTTTTCCCGGTAATCCGTATTTGCA (site ACAGTATCTTG) | 0.902
16 | AAAGATACATGGACCGGTTTTCCCGGTAATCCGTATTTGTT (site AAAGATACTAA) | 2.21
17 | AAAGATTCATGGACCGGTTTTCCCGGTAATCCGTATTTGTT (site AAAGATTCTAA) | 2.82
18 | AAAGATTCATGGACCGGTTTTCCCGGTAATCCGTATTTGTT (site CAAGATTCTAA) | 2.12
19 | AAAGATTCATGGACCGGTTTTCCCGGTAATCCGTATTTGTT (site GAAGATTCTAA) | 0.233
20 | AAAGATTCATGGACCGGTTTTCCCGGTAATCCGTATTTGTT (site TAAGATTCTAA) | 2.48
21 | AAAGTATCATGGACCGGTTTTCCCGGTAATCCGTATTTGGA (site AAAGTATCTTC) | 2.45
22 | AAAGTATCATGGACCGGTTTTCCCGGTAATCCGTATTTGGA (site ACAGTATCTTG) | 0
23 | AAATAGGCATGGACCGGTTTTCCCGGTAATCCGTATTTGCC (site AAATAGGCTGG) | 1.07
24 | AAATATACATGGACCGGTTTTCCCGGTAATCCGTATTTGAC (site AAATATACTGT) | 2.52

Row | Sequence | recombinant UMI read abundance (log10)
25 | AACAACCCATGGACCGGTTTTCCCGGTAATCCGTATTTGAA (site AACAACCCTTT) | 0.192
26 | AACAAGTCATGGACCGGTTTTCCCGGTAATCCGTATTTGAC (site AACAAGTCTGT) | 1.86
27 | AACAATACATGGACCGGTTTTCCCGGTAATCCGTATTTGTC (site AACAATACTGA) | 1.64
28 | AACAGTGCATGGACCGGTTTTCCCGGTAATCCGTATTTGTC (site AACAGTGCTGA) | 2.39
29 | AACCATCCATGGACCGGTTTTCCCGGTAATCCGTATTTGAT (site AACCATCCTAT) | 0.499
30 | AACCATCCATGGACCGGTTTTCCCGGTAATCCGTATTTGAT (site AACCCTCCTAT) | 0.0146
31 | AACCATCCATGGACCGGTTTTCCCGGTAATCCGTATTTGAT (site AACCGTCCTAT) | 0.00892
32 | AACCATCCATGGACCGGTTTTCCCGGTAATCCGTATTTGAT (site AACCTTCCTAT) | 0.431
33 | AACCCCGCATGGACCGGTTTTCCCGGTAATCCGTATTTGAC (site AACCCCGCTGT) | 2.32
34 | AACCGAGCATGGACCGGTTTTCCCGGTAATCCGTATTTGTT (site AACCGAGCTAA) | 0.146
35 | AACCGTTCATGGACCGGTTTTCCCGGTAATCCGTATTTGAT (site AACCGTACTAT) | 0.00732
36 | AACCGTTCATGGACCGGTTTTCCCGGTAATCCGTATTTGAT (site AACCGTCCTAT) | 0.012
37 | AACCGTTCATGGACCGGTTTTCCCGGTAATCCGTATTTGAT (site AACCGTGCTAT) | 0.0146
38 | AACCGTTCATGGACCGGTTTTCCCGGTAATCCGTATTTGAT (site AACCGTTCTAT) | 0.348
39 | AACCTTTCATGGACCGGTTTTCCCGGTAATCCGTATTTGAC (site AACCTTTCTGT) | 0
40 | AACCTTTCATGGACCGGTTTTCCCGGTAATCCGTATTTGAC (site ACCCTTTCTGT) | 0
41 | AACCTTTCATGGACCGGTTTTCCCGGTAATCCGTATTTGAC (site AGCCTTTCTGT) | 0
42 | AACCTTTCATGGACCGGTTTTCCCGGTAATCCGTATTTGAC (site ATCCTTTCTGT) | 0
43 | AACGACCCATGGACCGGTTTTCCCGGTAATCCGTATTTGAG (site AACGACCCTCT) | 0.029
44 | AACGATCCATGGACCGGTTTTCCCGGTAATCCGTATTTGTA (site AACGATCCTTA) | 1.42
45 | AACGCCGCATGGACCGGTTTTCCCGGTAATCCGTATTTGAG (site AACGCCGCTCT) | 0.916
46 | AACGGGACATGGACCGGTTTTCCCGGTAATCCGTATTTGAT (site AACGGGACTAT) | 2.44
47 | AACTATTCATGGACCGGTTTTCCCGGTAATCCGTATTTGTA (site AACTATTCTTA) | 2.2
48 | AACTCAGCATGGACCGGTTTTCCCGGTAATCCGTATTTGGG (site AACTCAGCTCC) | 0.0924

Row | Sequence | recombinant UMI read abundance (log10)
49 | AACTCAGCATGGACCGGTTTTCCCGGTAATCCGTATTTGGG (site ACCTCAGCTCC) | 0.0111
50 | AACTCAGCATGGACCGGTTTTCCCGGTAATCCGTATTTGGG (site AGCTCAGCTCC) | 0.00784
51 | AACTCAGCATGGACCGGTTTTCCCGGTAATCCGTATTTGGG (site ATCTCAGCTCC) | 0.192
52 | AACTGCGCATGGACCGGTTTTCCCGGTAATCCGTATTTGAT (site AACTGCGCTAT) | 1.34
53 | AACTGCGCATGGACCGGTTTTCCCGGTAATCCGTATTTGTG (site AACTGCGCTCA) | 0.435
54 | AACTGTCCATGGACCGGTTTTCCCGGTAATCCGTATTTGTG (site AACTGTCCTCA) | 0.0176
55 | AACTTGACATGGACCGGTTTTCCCGGTAATCCGTATTTGCT (site AACTTGACTAG) | 0.971
56 | AACTTGACATGGACCGGTTTTCCCGGTAATCCGTATTTGCT (site CACTTGACTAG) | 1.12
57 | AACTTGACATGGACCGGTTTTCCCGGTAATCCGTATTTGCT (site GACTTGACTAG) | 0.665
58 | AACTTGACATGGACCGGTTTTCCCGGTAATCCGTATTTGCT (site TACTTGACTAG) | 1.24
59 | AAGAAAACATGGACCGGTTTTCCCGGTAATCCGTATTTGGT (site AAGAAAACTAC) | 1.5
60 | AAGAACCCATGGACCGGTTTTCCCGGTAATCCGTATTTGAA (site AAGAACCCTTT) | 1.5
61 | AAGAAGACATGGACCGGTTTTCCCGGTAATCCGTATTTGCC (site AAGAAGACTGG) | 2.47
62 | AAGAAGACATGGACCGGTTTTCCCGGTAATCCGTATTTGCC (site AGGAAGACTTG) | 0.0155
63 | AAGAAGCCATGGACCGGTTTTCCCGGTAATCCGTATTTGAC (site AAGAAGCCTGT) | 0
64 | AAGCACACATGGACCGGTTTTCCCGGTAATCCGTATTTGTT (site AAGCACACTAA) | 1.8
65 | AAGCACGCATGGACCGGTTTTCCCGGTAATCCGTATTTGGA (site AAGCACGCTAC) | 0.0278
66 | AAGCACGCATGGACCGGTTTTCCCGGTAATCCGTATTTGGA (site AAGCACGCTCC) | 0.0219
67 | AAGCACGCATGGACCGGTTTTCCCGGTAATCCGTATTTGGA (site AAGCACGCTGC) | 0
68 | AAGCACGCATGGACCGGTTTTCCCGGTAATCCGTATTTGGA (site AAGCACGCTTC) | 0.817
69 | AAGCACGCATGGACCGGTTTTCCCGGTAATCCGTATTTGGG (site AAACACGCTCC) | 0.00685
70 | AAGCACGCATGGACCGGTTTTCCCGGTAATCCGTATTTGGG (site AACCACGCTCC) | 0.0266
71 | AAGCACGCATGGACCGGTTTTCCCGGTAATCCGTATTTGGG (site AAGAACGCTCC) | 0.0117
72 | AAGCACGCATGGACCGGTTTTCCCGGTAATCCGTATTTGGG (site AAGCAAGCTCC) | 0.0142
